Test systems include ACHN renal; HCT-15 colon; NCI-H460 lung; OVCAR-3 ovarian; OVCAR-8 ovarian; PC-3 prostate; SF-539 CNS; SK-OV-3 ovarian; TK-10 renal; UACC-257 melanoma.
What all share (test): growth of human tumour cells (NCI), 48 h

“And” between values parts separate entries of the source, which are not always exact repeats. Equal entries are not always repeated.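 Briefly, cells in 96-well plates were exposed to five compound concentrations for 48 h, and endpoints were estimated by linear interpolation. GI50 is the concentration that inhibits growth by half. The concentration for full growth arrest is given as TGI.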

Turning to `O=C(O)C(Cl)Cl`, the GI50 with ACHN renal is 5700 µM and > 10000 µM; in the test on HCT-15 colon, 6680 µM and > 10000 µM; in the test on NCI-H460 lung, 6070 µM and > 10000 µM; in the test with OVCAR-3 ovarian it was 4710 µM and > 10000 µM; with OVCAR-8 ovarian, more than 10000 µM; with PC-3 prostate it was more than 10000 µM. Moreover, the GI50 in the test on SF-539 CNS, with SK-OV-3 ovarian, in the test on TK-10 renal and in the test with UACC-257 melanoma was more than 10000 µM in each case. The TGI in the test on ACHN renal, in the test on HCT-15 colon, in the test on NCI-H460 lung, with OVCAR-3 ovarian, in the test with OVCAR-8 ovarian and in the test on PC-3 prostate was more than 10000 µM in each case. For the same compound, the TGI in the test on SF-539 CNS, with SK-OV-3 ovarian, with TK-10 renal and with UACC-257 melanoma was more than 10000 µM throughout.

As to `COC(=O)/C=C/c1cc(OC(C)=O)c2c(c1)[C@@H](C(=O)OC)[C@H](c1ccc(OC(C)=O)c(OC(C)=O)c1)O2`, the GI50 with ACHN renal was 0.0705 µM; in the test with HCT-15 colon, 0.0421 µM; in the test on NCI-H460 lung, 0.299 µM; with OVCAR-3 ovarian, 0.0267 µM; in the test on OVCAR-8 ovarian, 0.0795 µM; in the test with PC-3 prostate, 0.316 µM. The GI50 in the test on SF-539 CNS was 0.0344 µM; with SK-OV-3 ovarian it was 0.417 µM; with TK-10 renal it was 2.58 µM; in the test with UACC-257 melanoma, 1.45 µM. Also, the TGI in the test on ACHN renal was 52.5 µM; with HCT-15 colon it was more than 100 µM; in the test on NCI-H460 lung it was 15 µM; in the test with OVCAR-3 ovarian it was 0.0681 µM; with OVCAR-8 ovarian, more than 88.3 µM; with PC-3 prostate, 54.7 µM. The TGI with SF-539 CNS is 0.305 µM; in the test on SK-OV-3 ovarian, 41.9 µM; in the test on TK-10 renal, more than 91.1 µM; in the test with UACC-257 melanoma, 56.2 µM.

For the compound `NC(N)=NS(=O)(=O)c1ccc(N=Nc2c(O)c(C(=O)O)cc3ccccc23)cc1`, the TGI in the test with ACHN renal, with HCT-15 colon, with NCI-H460 lung, with OVCAR-3 ovarian, with OVCAR-8 ovarian and with PC-3 prostate was more than 100 µM throughout. The TGI in the test on SF-539 CNS, in the test on SK-OV-3 ovarian, in the test with TK-10 renal and in the test on UACC-257 melanoma was more than 100 µM each time.

As for `C/C=C/[C@@H]1O[C@@H]2COC(=O)C2=C[C@@H]1O`, the GI50 was 3.58 µM in the test on ACHN renal; 16.9 µM in the test with HCT-15 colon; more than 57.7 µM in the test with NCI-H460 lung; 4.19 µM in the test on OVCAR-3 ovarian; 23.3 µM with OVCAR-8 ovarian; 18.7 µM in the test on PC-3 prostate. In addition, the GI50 in the test on SF-539 CNS is 2.78 µM; in the test on SK-OV-3 ovarian, 25.9 µM; in the test on TK-10 renal, 6.43 µM; with UACC-257 melanoma, 21 µM. Moreover, the TGI with ACHN renal is 13.4 µM; in the test on HCT-15 colon, 39.8 µM; in the test with NCI-H460 lung, more than 100 µM; in the test with OVCAR-3 ovarian it was 22.2 µM; with OVCAR-8 ovarian, 51.8 µM; in the test with PC-3 prostate it was 36.6 µM. Moreover, the TGI is 8.14 µM in the test on SF-539 CNS, more than 58.4 µM with SK-OV-3 ovarian, 20.5 µM in the test with TK-10 renal and 36.9 µM with UACC-257 melanoma.

In the case of `O=C1c2c(F)c(F)c(F)c(F)c2C(=O)N1c1ccc(F)cc1F`, the GI50 with ACHN renal was 10.1 µM; in the test on HCT-15 colon, 2.57 µM; with NCI-H460 lung, 9.35 µM; in the test on OVCAR-3 ovarian, 9.17 µM; in the test with OVCAR-8 ovarian, 12.8 µM; in the test with PC-3 prostate, 6.21 µM. For the same compound, the GI50 with SF-539 CNS was 2.78 µM; with SK-OV-3 ovarian it was 20.7 µM; with TK-10 renal, 13.7 µM; in the test with UACC-257 melanoma it was 21.8 µM. Also, the TGI with ACHN renal was 23 µM; in the test with HCT-15 colon, 7.43 µM; in the test with NCI-H460 lung it was more than 51 µM; in the test on OVCAR-3 ovarian, 27.5 µM; in the test with OVCAR-8 ovarian it was 50.8 µM; in the test on PC-3 prostate, 27.2 µM. The TGI is 7.27 µM in the test on SF-539 CNS, 50.2 µM in the test with SK-OV-3 ovarian, more than 51 µM in the test on TK-10 renal and 57.2 µM in the test on UACC-257 melanoma.

For `O=C1NC(=NCc2ccccc2)S/C1=C\c1ccc2ncccc2c1`, the GI50 in the test with ACHN renal, in the test with HCT-15 colon, in the test with NCI-H460 lung, with OVCAR-3 ovarian, with OVCAR-8 ovarian and in the test on PC-3 prostate was more than 25 µM in each case. Besides, the GI50 in the test on SF-539 CNS, in the test with SK-OV-3 ovarian, in the test with TK-10 renal and in the test with UACC-257 melanoma was more than 25 µM in each case. The TGI in the test with ACHN renal, with HCT-15 colon, in the test on NCI-H460 lung, with OVCAR-3 ovarian, with OVCAR-8 ovarian and in the test with PC-3 prostate was more than 25 µM throughout. In addition, the TGI in the test on SF-539 CNS, in the test with SK-OV-3 ovarian, in the test with TK-10 renal and in the test on UACC-257 melanoma was more than 25 µM throughout.

On to `COc1ccc(CN2C(=O)C(Cl)=C(Nc3cccc(C(F)(F)F)c3)C2=O)cc1`, for which the GI50 in the test with ACHN renal is 6.71 µM; in the test on HCT-15 colon, 3.69 µM; in the test with NCI-H460 lung, 3.1 µM; with OVCAR-3 ovarian, 4.19 µM; in the test with OVCAR-8 ovarian it was 7.65 µM; in the test on PC-3 prostate, 4.61 µM. In addition, the GI50 was 1.77 µM with SF-539 CNS, 8.67 µM in the test on SK-OV-3 ovarian, 16.8 µM in the test with TK-10 renal and 11.1 µM in the test on UACC-257 melanoma. The TGI with ACHN renal turned out to be 20.5 µM; in the test with HCT-15 colon it was 17.6 µM; in the test on NCI-H460 lung it was 15.1 µM; in the test with OVCAR-3 ovarian it was 15.8 µM; in the test on OVCAR-8 ovarian, 30.8 µM; with PC-3 prostate, 37.3 µM. Moreover, the TGI was 12 µM in the test with SF-539 CNS, 62.2 µM in the test on SK-OV-3 ovarian, 46.3 µM with TK-10 renal and 27.6 µM in the test on UACC-257 melanoma.

As for `O=C1OCC2=C1C(c1cccc(Br)c1)c1cc3c(cc1N2CCO)OCCO3` (stereo not given), the GI50 in the test on ACHN renal was 0.103 µM; in the test on HCT-15 colon, 0.0766 µM; with NCI-H460 lung, 0.0588 µM; in the test with OVCAR-3 ovarian, 0.0345 µM; in the test on OVCAR-8 ovarian it was 0.12 µM; in the test with PC-3 prostate it was 0.0546 µM. For the same compound, the GI50 in the test on SF-539 CNS is 0.051 µM; in the test on SK-OV-3 ovarian it was 0.067 µM; with TK-10 renal it was 0.101 µM; in the test on UACC-257 melanoma, 0.0261 µM. For the same compound, the TGI is more than 34 µM in the test with ACHN renal; more than 50 µM with HCT-15 colon; 2.21 µM in the test with NCI-H460 lung; 0.0967 µM in the test on OVCAR-3 ovarian; 1.54 µM in the test with OVCAR-8 ovarian; 8.74 µM in the test with PC-3 prostate. Further, the TGI in the test on SF-539 CNS is 0.46 µM; in the test on SK-OV-3 ovarian it was 4.04 µM; in the test on TK-10 renal it was 16.9 µM; in the test with UACC-257 melanoma, 15.3 µM.

Values taken from PubChem BioAssay (NCI).
